Our source for the Kd values is PMC5947727, “Crystal structures of Lymphocytic choriomeningitis virus endonuclease domain complexed with diketo-acid ligands” (IUCrJ, 2018).

The target of assay [1] is T1, LCMV endonuclease domain (ENDO, ENDO-WT) (Lymphocytic choriomeningitis virus (strain Armstrong), UniProt P14240, D119A).
T1 construct: gene L; N-terminal endonuclease domain of L (residues 1-196), N-terminal hexahistidine tag, pDEST14, E. coli Rosetta (DE3) pLysS; IMAC, Q Sepharose, Superdex 200
In words: biochemical. In kind it is binding.

Assay [2] concerns the target T2, LCMV endonuclease domain (ENDO, ENDO-WT) (Lymphocytic choriomeningitis virus (strain Armstrong), UniProt P14240).
T2 construct: gene L; N-terminal endonuclease domain of L (residues 1-196), N-terminal hexahistidine tag, pDEST14, E. coli Rosetta (DE3) pLysS; IMAC, Q Sepharose, Superdex 200
The assay can be described thus: biochemical. The assay is classed as binding.

For the compound `O=C(O)C(=O)CC(=O)c1ccccc1` [compound 1, 2,4-dioxo-4-phenylbutanoic acid], the Kd in assay [1] stood at 18800 ± 3880 nM; in assay [2] it was 5380 ± 2060 nM.
Turning to `O=C(O)/C(O)=C/C(=O)C1(Cc2ccc(Cl)cc2)CCN(Cc2ccccc2)CC1` [compound 2, (Z)-4-{1-benzyl-4-[(4-chlorophenyl)methyl]piperidin-4-yl}-2-hydroxy-4-oxobut-2-enoic acid], the values for the Kd in assay [1] and in assay [2] were 890 ± 60 nM and 510 ± 110 nM, respectively.
On to `O=C(O)C(O)=CC(=O)c1ccc(-c2ccccc2)cc1` [compound 3, 2-hydroxy-4-(biphenyl-4-yl)-4-oxobut-2-enoic acid], for which the Kd in assay [2] is 50 ± 20 nM.
On the same count and under the same terms, next, `O=C(O)C(O)=CC(=O)c1ccc2ccc3ccccc3c2c1` [compound 4, 2-hydroxy-4-oxo-4-(phenanthren-3-yl)but-2-enoic acid]: 250 ± 70 nM.
